Experimental data reported in US20220220135A1 (BAR-ILAN UNIVERSITY, priority 2019, published 2022).
Read-outs that look alike come from different tables or passages of the source.

What was measured:
[1] = biological target: T1, human P2Y2R (Homo sapiens, UniProt P41231); assay: Calcium mobilization in 1321N1 astrocytoma cells expressing human P2Y2R; format: cell-based
T1 construct: expressed in transfected cells; host or cells: 1321N1 astrocytoma cells
Method: (§1) Given the structural resemblance of 106-109 to the natural ligands of P2Y receptors, adenine and uracil nucleotides as natural substrates, were assessed for agonist potency on the human P2Y1, P2Y2, P2Y4, and P2Y6 receptor. To evaluate NPP1 selectivity of analogs 106-109, they were tested for their ability to activate of the uridine-nucleotide sensitive human recombinant P2Y1,2,4,6-receptors. The agonist potencies of this series of nucleotide analogues on the Gq protein-coupled human P2Y1R, P2Y2R, P2Y4R, and P2Y6R was determined by assessing its ability to induce calcium mobilization in stably transfected 1321N1 astrocytoma cells (Table 8). The nucleotide analogues were found in calcium mobilization assays to activate the P2Y2R with mid-micromolar potency.

[2] = biological target: T2, human NPP3 (Homo sapiens, UniProt O14638); assay: Inhibition of human NPP3, 100 μM p-Nph-5′-TMP as substrate (Tables 5, 7); format: biochemical; conditions: 100 μM p-Nph-5′-TMP as a substrate
T2 sequence (O14638 1-875): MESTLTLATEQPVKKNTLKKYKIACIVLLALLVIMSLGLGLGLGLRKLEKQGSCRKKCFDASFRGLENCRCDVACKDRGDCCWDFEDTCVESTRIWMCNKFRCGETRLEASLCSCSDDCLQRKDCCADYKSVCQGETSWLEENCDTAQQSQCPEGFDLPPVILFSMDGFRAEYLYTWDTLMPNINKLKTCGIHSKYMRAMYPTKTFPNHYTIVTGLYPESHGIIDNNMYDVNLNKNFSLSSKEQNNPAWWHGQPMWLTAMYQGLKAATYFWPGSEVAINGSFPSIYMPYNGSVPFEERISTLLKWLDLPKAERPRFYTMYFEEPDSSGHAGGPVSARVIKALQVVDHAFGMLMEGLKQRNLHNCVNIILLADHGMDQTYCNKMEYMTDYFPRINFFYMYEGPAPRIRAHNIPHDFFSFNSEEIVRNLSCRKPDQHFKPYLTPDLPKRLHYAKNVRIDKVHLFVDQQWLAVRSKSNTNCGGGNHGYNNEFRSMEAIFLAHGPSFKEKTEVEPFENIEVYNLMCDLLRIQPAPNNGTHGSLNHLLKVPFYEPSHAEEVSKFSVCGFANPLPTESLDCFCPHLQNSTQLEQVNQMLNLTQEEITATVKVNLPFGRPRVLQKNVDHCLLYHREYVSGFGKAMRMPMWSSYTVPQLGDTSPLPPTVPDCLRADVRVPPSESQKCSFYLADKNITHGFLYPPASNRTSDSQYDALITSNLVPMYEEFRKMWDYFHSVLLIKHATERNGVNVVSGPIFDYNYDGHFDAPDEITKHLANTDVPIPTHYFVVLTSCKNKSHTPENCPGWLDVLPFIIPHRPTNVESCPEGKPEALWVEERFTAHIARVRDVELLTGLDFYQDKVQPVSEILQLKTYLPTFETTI

[3] = biological target: T3, NPP1 (Homo sapiens, UniProt P22413); assay: Inhibition of human NPP1, 100 μM p-Nph-5′-TMP as substrate (Tables 5, 6); conditions: for inhibition at 10 µM: read-out: % inhibition ± SEM at 10 μM, human NPP1
T3 sequence (P22413 1-925): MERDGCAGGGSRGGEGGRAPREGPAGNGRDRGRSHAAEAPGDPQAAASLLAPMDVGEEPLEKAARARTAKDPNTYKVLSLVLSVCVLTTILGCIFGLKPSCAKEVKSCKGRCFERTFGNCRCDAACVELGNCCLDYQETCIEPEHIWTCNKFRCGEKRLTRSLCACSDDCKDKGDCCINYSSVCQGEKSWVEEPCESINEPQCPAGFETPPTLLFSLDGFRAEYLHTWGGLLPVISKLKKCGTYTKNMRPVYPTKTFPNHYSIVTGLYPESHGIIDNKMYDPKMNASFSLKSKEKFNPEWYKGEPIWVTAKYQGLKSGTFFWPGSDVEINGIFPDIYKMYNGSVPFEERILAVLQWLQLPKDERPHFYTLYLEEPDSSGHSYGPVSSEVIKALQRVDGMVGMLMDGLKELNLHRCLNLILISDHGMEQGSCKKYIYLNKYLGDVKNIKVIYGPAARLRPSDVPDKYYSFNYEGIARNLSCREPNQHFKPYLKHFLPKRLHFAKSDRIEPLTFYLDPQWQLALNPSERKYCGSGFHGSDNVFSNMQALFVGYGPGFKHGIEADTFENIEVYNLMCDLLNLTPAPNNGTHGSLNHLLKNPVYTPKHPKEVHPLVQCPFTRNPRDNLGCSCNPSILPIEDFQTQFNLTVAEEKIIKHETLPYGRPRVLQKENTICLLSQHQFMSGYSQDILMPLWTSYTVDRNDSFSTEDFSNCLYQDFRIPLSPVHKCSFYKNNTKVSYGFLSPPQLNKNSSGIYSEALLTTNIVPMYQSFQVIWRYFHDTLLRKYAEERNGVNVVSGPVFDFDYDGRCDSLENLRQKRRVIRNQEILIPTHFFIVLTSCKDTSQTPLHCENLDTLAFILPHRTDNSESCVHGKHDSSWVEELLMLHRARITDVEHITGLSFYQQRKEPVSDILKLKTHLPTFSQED

[4] = biological target: P2Y6R (Homo sapiens, UniProt Q15077); assay: Calcium mobilization in 1321N1 astrocytoma cells expressing human P2Y6R; format: cell-based; set-up: expressed in transfected cells; host or cells: 1321N1 astrocytoma cells (stably transfected)
Method: as §1

[5] = biological target: T4, human P2Y4R (Homo sapiens, UniProt P51582); assay: Calcium mobilization in 1321N1 astrocytoma cells expressing human P2Y4R; format: cell-based
T4 construct: expressed in transfected cells; host or cells: 1321N1 astrocytoma cells
Method: as §1

[6] = biological target: T3, NPP1; assay: Inhibition of human NPP1, 100 μM ATP as substrate (FIG. 9, Table 6); format: biochemical; conditions: for inhibition at 10 µM: n = 3, read-out: % inhibition ± SEM at 10 μM, human NPP1
Method: Each experiment was performed in triplicates;

[7] = biological target: T5, human CD39 (Homo sapiens, UniProt P49961); assay: Inhibition of human CD39, 0.5 μM PSB-170621A as substrate; format: biochemical; conditions: 0.5 μM PSB-170621A as a substrate; n = 3
T5 sequence (P49961 1-510): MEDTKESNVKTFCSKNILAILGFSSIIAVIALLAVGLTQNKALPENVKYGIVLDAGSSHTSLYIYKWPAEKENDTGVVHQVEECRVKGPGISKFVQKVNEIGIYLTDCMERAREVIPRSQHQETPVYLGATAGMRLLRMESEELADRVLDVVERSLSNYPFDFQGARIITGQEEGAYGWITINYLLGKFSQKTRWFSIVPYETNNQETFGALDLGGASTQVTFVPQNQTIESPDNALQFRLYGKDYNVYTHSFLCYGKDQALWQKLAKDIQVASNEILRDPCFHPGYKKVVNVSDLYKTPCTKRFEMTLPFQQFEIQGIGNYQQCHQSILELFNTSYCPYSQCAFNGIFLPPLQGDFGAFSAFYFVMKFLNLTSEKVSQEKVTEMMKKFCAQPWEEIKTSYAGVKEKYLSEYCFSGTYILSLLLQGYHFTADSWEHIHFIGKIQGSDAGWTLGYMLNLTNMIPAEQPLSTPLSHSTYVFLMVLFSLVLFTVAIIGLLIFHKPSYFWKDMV

[8] = biological target: T6, human P2Y1R (Homo sapiens, UniProt P47900); assay: Calcium mobilization in 1321N1 astrocytoma cells expressing human P2Y1R; format: cell-based
T6 construct: expressed in transfected cells; host or cells: 1321N1 astrocytoma cells
Method: as §1

[9] = test system: primary human chondrocytes; assay: Cell viability of primary human chondrocytes, XTT assay; format: cell-based; conditions: cultured primary human chondrocytes, 0.1 mM
Method: FIG. 11: Analogs 20-28 are not toxic to primary human chondrocytes. Chondrocytes were incubated with analogs 20-28 at the indicated concentrations for 24 h, and then cell viability was assessed by the XTT assay;
FIG. 15: The effects of analogs 106-109 on primary human chondrocytes. (A) Analogs 106-109 inhibit NPPase activity in primary chondrocytes. NPPase activity was assayed by measuring the hydrolysis of the chromogenic substrate, pnp-TMP. […] Alkaline phosphatase activity was assayed by hydrolysis of p-nitrophenyl phosphate. (C) Analogs 106-109 are not toxic to cultured chondrocytes at a concentration of 0.1 mM. Cell viability was assessed by the XTT assay. Mean (columns) and SD (error bars) of triplicate cell culture experiments are shown.
A prerequisite for the application of inhibitors 20-28 as therapeutic agents is the lack of toxicity. For this purpose, primary human chondrocytes were cultured with analogs 20-28 at a high concentration of 1 mM for 24 h. Thereafter, cell viability was measured relative to untreated controls by the XTT assay and is represented on FIG. 11. No significant decrease in cell's viability was discernible at concentrations of up to 1 mM.

[10] = biological target: T7, Human CD39 (NTPDase1) (Homo sapiens, UniProt P49961); conditions: literature value; cited from earlier work
T7 sequence (P49961 1-510): T5 sequence (P49961 1-510)

[11] = biological target: T8, Human CD73 (Homo sapiens, UniProt P21589); conditions: literature value; cited from earlier work
T8 sequence (P21589 27-549): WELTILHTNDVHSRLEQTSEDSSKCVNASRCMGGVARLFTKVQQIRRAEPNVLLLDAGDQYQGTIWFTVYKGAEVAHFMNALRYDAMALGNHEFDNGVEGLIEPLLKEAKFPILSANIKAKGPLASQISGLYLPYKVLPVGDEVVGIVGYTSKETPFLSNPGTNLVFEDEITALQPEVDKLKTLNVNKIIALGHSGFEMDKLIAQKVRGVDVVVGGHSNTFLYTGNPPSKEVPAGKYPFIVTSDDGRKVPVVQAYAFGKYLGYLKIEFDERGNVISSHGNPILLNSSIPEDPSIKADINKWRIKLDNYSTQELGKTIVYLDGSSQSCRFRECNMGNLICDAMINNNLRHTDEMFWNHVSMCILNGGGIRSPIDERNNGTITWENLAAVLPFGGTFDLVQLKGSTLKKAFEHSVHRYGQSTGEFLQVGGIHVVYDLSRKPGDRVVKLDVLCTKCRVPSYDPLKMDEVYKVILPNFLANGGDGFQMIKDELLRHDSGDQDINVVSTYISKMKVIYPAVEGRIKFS

[12] = biological target: T3, NPP1; conditions: literature value; cited from earlier work
[13] = biological target: T7, Human CD39 (NTPDase1); assay: Inhibition of human CD39 (NTPDase1), 100 μM ADP as substrate; format: biochemical; conditions: 100 μM ADP as a substrate
[14] = 10 μM, inactive = no inhibition at 10 μM

Chain of P2Y6R (Q15077 whole entry): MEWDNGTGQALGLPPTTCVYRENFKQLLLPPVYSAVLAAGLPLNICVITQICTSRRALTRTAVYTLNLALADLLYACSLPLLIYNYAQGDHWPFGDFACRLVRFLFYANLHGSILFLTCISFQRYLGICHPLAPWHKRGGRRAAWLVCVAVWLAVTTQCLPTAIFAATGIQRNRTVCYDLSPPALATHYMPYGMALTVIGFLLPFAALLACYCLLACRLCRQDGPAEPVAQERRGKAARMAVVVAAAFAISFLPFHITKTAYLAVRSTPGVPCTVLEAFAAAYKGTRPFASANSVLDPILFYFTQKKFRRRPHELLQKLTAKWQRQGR
T4 sequence (P51582 whole entry): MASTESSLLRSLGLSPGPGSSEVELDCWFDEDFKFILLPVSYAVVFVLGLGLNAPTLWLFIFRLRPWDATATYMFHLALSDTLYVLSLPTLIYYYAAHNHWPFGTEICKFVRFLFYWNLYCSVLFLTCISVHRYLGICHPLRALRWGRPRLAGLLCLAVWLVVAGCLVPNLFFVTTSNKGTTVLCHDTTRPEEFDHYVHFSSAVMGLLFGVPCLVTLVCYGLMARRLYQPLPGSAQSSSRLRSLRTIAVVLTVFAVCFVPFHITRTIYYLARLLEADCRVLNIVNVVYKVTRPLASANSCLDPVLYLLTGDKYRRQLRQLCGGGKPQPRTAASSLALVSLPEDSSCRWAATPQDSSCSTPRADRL
T1 sequence (P41231 whole entry): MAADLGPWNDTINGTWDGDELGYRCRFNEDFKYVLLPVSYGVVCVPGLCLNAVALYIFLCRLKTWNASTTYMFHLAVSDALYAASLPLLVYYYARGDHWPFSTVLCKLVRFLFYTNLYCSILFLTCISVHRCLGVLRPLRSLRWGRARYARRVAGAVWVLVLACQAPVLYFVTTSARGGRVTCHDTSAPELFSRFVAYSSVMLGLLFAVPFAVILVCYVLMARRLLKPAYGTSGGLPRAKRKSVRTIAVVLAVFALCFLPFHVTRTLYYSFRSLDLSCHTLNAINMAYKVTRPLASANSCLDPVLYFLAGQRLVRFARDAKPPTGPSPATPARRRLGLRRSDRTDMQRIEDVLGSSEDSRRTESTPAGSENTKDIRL
T6 sequence (P47900 whole entry): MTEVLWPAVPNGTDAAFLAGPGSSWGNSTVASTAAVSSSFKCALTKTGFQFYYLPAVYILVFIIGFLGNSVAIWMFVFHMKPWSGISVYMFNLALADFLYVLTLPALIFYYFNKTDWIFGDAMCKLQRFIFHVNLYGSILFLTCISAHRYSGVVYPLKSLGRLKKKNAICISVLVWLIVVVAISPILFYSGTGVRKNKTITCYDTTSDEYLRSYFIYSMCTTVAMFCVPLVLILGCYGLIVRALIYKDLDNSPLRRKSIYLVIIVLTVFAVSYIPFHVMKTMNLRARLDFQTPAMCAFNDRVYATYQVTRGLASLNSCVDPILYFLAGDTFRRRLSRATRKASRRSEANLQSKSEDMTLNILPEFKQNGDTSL

Row | Structure (SMILES) | % activation at 10 μM, P2Y2 [1] | Ki [3] | inhibition at 10 µM [3] | % activation at 10 μM, P2Y6 [4] | % activation at 10 μM, P2Y4 [5] | inhibition at 10 µM ([6]; ATP (100 μM) as a substrate) | % activation at 10 μM, P2Y1 [8] | cell viability (XTT), toxicity [9] | other results
1 | Nc1ncnc2c1ncn2COCCOP(=S)(S)OP(=O)(O)OP(=O)(O)O (centres unmarked) [compound 107] | 39 ± 13% | 1.98 µM | 74 ± 1% | −5 ± 3% | −2 ± 2% | 66 ± 1% | −1 ± 1% | – | % inhibition ± SEM, human NPP3 ([2]; n = 3): 17 ± 1%; Ki ([6]; ATP (100 μM) as a substrate, read-out: Ki (μM ± SD), human NPP1 (converted)): 0.334 µM; % inhibition ± SEM, human CD39 [7]: 28 ± 1%
2 | Nc1ncnc2c1ncn2COCCOP(=S)(S)OP(=O)(O)C(Cl)(Cl)P(=O)(O)O (centres unmarked) [compound 109] | 21 ± 5% | 0.698 µM | 85 ± 2% | 2 ± 4% | 0 ± 2% | 37 ± 1% | −2 ± 1% | – | –
3 | Nc1ncnc2c1ncn2COCCOP(=S)(S)OP(=O)(O)OP(=O)(O)O (centres unmarked) [Analogue 107] | – | – | – | – | – | – | – | slightly increase cell survival | inhibition type (Lineweaver-Burk plot) ([3]; vs p-Nph-5′-TMP, […]): non-competitive inhibition; inhibition type (Lineweaver-Burk plot) ([6]; vs ATP, α value of ~1): non-competitive inhibition
4 | Cc1ccc(C(=O)Nc2ccc(S(=O)(=O)O)c3cc(S(=O)(=O)O)cc(S(=O)(=O)O)c23)cc1NC(=O)c1cccc(NC(=O)Nc2cccc(C(=O)Nc3cc(C(=O)Nc4ccc(S(=O)(=O)O)c5cc(S(=O)(=O)O)cc(S(=O)(=O)O)c45)ccc3C)c2)c1 [Suramin] | – | – | – | – | – | – | – | – | Ki [10]: 300 µM
5 | Nc1ncnc2c1ncn2COCCOP(=S)(S)OP(=O)(O)CP(=O)(O)O (centres unmarked) [compound 108] | 44 ± 9% | 2.16 µM | 65 ± 1% | −8 ± 2% | −2 ± 1% | 16 ± 3% | 0 ± 1% | – | –
6 | Nc1ncnc2c1ncn2[C@@H]1O[C@H](COP(=O)(O)CP(=O)(O)O)[C@@H](O)[C@H]1O [AOPCP, reference compound] | – | – | – | – | – | – | – | – | Ki [11]: 0.197 µM; % inhibition ± SD at 10 μM, Human NPP3 [2, 14]: inactived; Ki [12]: 1.28 to 16.5 µM; % inhibition ± SD at 10 μM, Human CD39 (NTPDase1) [13, 14]: 12 ± 5%; Ki ([13]; read-out: Ki ± SD (μM), Human CD39 (NTPDase1)): > 10 µM
7 | Nc1ncnc2c1ncn2COCCOP(=S)(S)OP(=O)(O)C(Cl)(Cl)P(=O)(O)O (centres unmarked) [Analogue 109] | – | – | – | – | – | – | – | slightly increase cell survival | –
8 | Nc1ncnc2c1ncn2COCCOP(=S)(S)OP(=O)(O)O (centres unmarked) [Analogue 106] | – | – | – | – | – | – | – | slightly increase cell survival | –
